# Measured values reported in article PMC8896928, “Preparation, Characterization, and Preliminary Imaging Study of [^188Re]Re-Ibandronate as a Novel Theranostic Radiopharmaceutical for Bone Metastasis” (Contrast Media & Molecular Imaging, 2022).
# Read-outs that look alike come from different tables or passages of the source.
# What was measured:
# [1] = Biodistribution in normal mice; format: in vivo, Kunming mice
# Description: Twenty Kunming mice (originated from Swiss albino mice and introduced into Kunming, China.) were randomly divided into five groups (equal number of males and females). Each group was injected with 3.7 MBq [^188Re]Re-IBA. […] The blood and important tissue and organ samples were collected to measure the radioactivity count by γ counter. Following the time attenuation correction, the percentage injection dose rate per gram of tissue (%ID/g) was calculated at each time point. The result is expressed as mean ± standard deviation ( χ¯ ± s). The in vivo distribution of [^188Re]ReO4^− was studied using the aforementioned method.
# patients = conditions: cited from earlier work; for Nephrotoxicity: patients, renal safety
# [2] = 0.9% NaCl, 24 h; cited from earlier work
# [3] = Swiss mice, cited from earlier work
# [4] = Kunming mice, 24 h, cited from earlier work
# [5] = patients with bone tumors, P < 0.05
compound,measurement,setting,value
"[O]=[188Re](=[O])(=[O])[O-] [[^188Re]ReO4^−, reference compound]",%ID/g Blood,[1]; 1 h,4.648 ± 1.631 %ID/g
same,%ID/g Brain,[1]; 1 h,0.207 ± 0.044 %ID/g
same,%ID/g Femur,[1]; 1 h,1.670 ± 0.345 %ID/g
same,%ID/g Gonad,[1]; 1 h,1.096 ± 0.007 %ID/g
same,%ID/g Heart,[1]; 1 h,1.422 ± 0.339 %ID/g
same,%ID/g Kidney,[1]; 1 h,2.923 ± 0.658 %ID/g
same,%ID/g Liver,[1]; 1 h,2.480 ± 0.556 %ID/g
same,%ID/g Lung,[1]; 1 h,4.458 ± 1.379 %ID/g
same,%ID/g Muscle,[1]; 1 h,0.775 ± 0.074 %ID/g
same,%ID/g Small intestine,[1]; 1 h,1.671 ± 0.448 %ID/g
same,%ID/g Spleen,[1]; 1 h,2.341 ± 0.973 %ID/g
same,%ID/g Stomach,[1]; 1 h,22.747 ± 5.67 %ID/g
same,%ID/g Thyroid gland,[1]; 1 h,20.247 ± 2.489 %ID/g
same,Femur/heart radioactivity ratio,[1]; 1 h,1.195
same,Femur/liver radioactivity ratio,[1]; 1 h,0.685
same,Femur/muscle radioactivity ratio,[1]; 1 h,2.193
same,%ID/g Blood,[1]; 3 h,1.578 ± 0.419 %ID/g
same,%ID/g Brain,[1]; 3 h,0.070 ± 0.024 %ID/g
same,%ID/g Femur,[1]; 3 h,0.431 ± 0.038 %ID/g
same,%ID/g Gonad,[1]; 3 h,0.404 ± 0.130 %ID/g
same,%ID/g Heart,[1]; 3 h,0.401 ± 0.050 %ID/g
same,%ID/g Kidney,[1]; 3 h,0.683 ± 0.118 %ID/g
same,%ID/g Liver,[1]; 3 h,0.530 ± 0.038 %ID/g
same,%ID/g Lung,[1]; 3 h,1.026 ± 0.312 %ID/g
same,%ID/g Muscle,[1]; 3 h,0.182 ± 0.023 %ID/g
same,%ID/g Small intestine,[1]; 3 h,0.558 ± 0.207 %ID/g
same,%ID/g Spleen,[1]; 3 h,0.490 ± 0.090 %ID/g
same,%ID/g Stomach,[1]; 3 h,8.578 ± 3.928 %ID/g
same,%ID/g Thyroid gland,[1]; 3 h,10.167 ± 1.618 %ID/g
same,Femur/heart radioactivity ratio,[1]; 3 h,1.075
same,Femur/liver radioactivity ratio,[1]; 3 h,0.813
same,Femur/muscle radioactivity ratio,[1]; 3 h,2.372
same,%ID/g Blood,[1]; 6 h,0.533 ± 0.254 %ID/g
same,%ID/g Brain,[1]; 6 h,0.044 ± 0.019 %ID/g
same,%ID/g Femur,[1]; 6 h,0.213 ± 0.102 %ID/g
same,%ID/g Gonad,[1]; 6 h,0.207 ± 0.065 %ID/g
same,%ID/g Heart,[1]; 6 h,0.176 ± 0.074 %ID/g
same,%ID/g Kidney,[1]; 6 h,0.338 ± 0.191 %ID/g
same,%ID/g Liver,[1]; 6 h,0.258 ± 0.086 %ID/g
same,%ID/g Lung,[1]; 6 h,0.487 ± 0.132 %ID/g
same,%ID/g Muscle,[1]; 6 h,0.109 ± 0.065 %ID/g
same,%ID/g Small intestine,[1]; 6 h,0.263 ± 0.050 %ID/g
same,%ID/g Spleen,[1]; 6 h,0.270 ± 0.098 %ID/g
same,%ID/g Stomach,[1]; 6 h,2.828 ± 1.287 %ID/g
same,%ID/g Thyroid gland,[1]; 6 h,4.299 ± 1.015 %ID/g
same,Femur/heart radioactivity ratio,[1]; 6 h,1.205
same,Femur/liver radioactivity ratio,[1]; 6 h,0.823
same,Femur/muscle radioactivity ratio,[1]; 6 h,1.950
same,%ID/g Blood,[1]; 24 h,0.023 ± 0.009 %ID/g
same,%ID/g Brain,[1]; 24 h,0.017 ± 0.004 %ID/g
same,%ID/g Femur,[1]; 24 h,0.031 ± 0.003 %ID/g
same,%ID/g Gonad,[1]; 24 h,0.021 ± 0.009 %ID/g
same,%ID/g Heart,[1]; 24 h,0.017 ± 0.005 %ID/g
same,%ID/g Kidney,[1]; 24 h,0.017 ± 0.003 %ID/g
same,%ID/g Liver,[1]; 24 h,0.023 ± 0.010 %ID/g
same,%ID/g Lung,[1]; 24 h,0.054 ± 0.017 %ID/g
same,%ID/g Muscle,[1]; 24 h,0.021 ± 0.008 %ID/g
same,%ID/g Small intestine,[1]; 24 h,0.023 ± 0.004 %ID/g
same,%ID/g Spleen,[1]; 24 h,0.028 ± 0.007 %ID/g
same,%ID/g Stomach,[1]; 24 h,0.053 ± 0.032 %ID/g
same,%ID/g Thyroid gland,[1]; 24 h,0.051 ± 0.026 %ID/g
same,Femur/heart radioactivity ratio,[1]; 24 h,1.853
same,Femur/liver radioactivity ratio,[1]; 24 h,1.325
same,Femur/muscle radioactivity ratio,[1]; 24 h,1.498
same,%ID/g Blood,[1]; 48 h,0.007 ± 0.002 %ID/g
same,%ID/g Brain,[1]; 48 h,0.013 ± 0.006 %ID/g
same,%ID/g Femur,[1]; 48 h,0.011 ± 0.005 %ID/g
same,%ID/g Gonad,[1]; 48 h,0.007 ± 0.001 %ID/g
same,%ID/g Heart,[1]; 48 h,0.011 ± 0.004 %ID/g
same,%ID/g Kidney,[1]; 48 h,0.017 ± 0.007 %ID/g
same,%ID/g Liver,[1]; 48 h,0.018 ± 0.010 %ID/g
same,%ID/g Lung,[1]; 48 h,0.036 ± 0.008 %ID/g
same,%ID/g Muscle,[1]; 48 h,0.020 ± 0.005 %ID/g
same,%ID/g Small intestine,[1]; 48 h,0.014 ± 0.005 %ID/g
same,%ID/g Spleen,[1]; 48 h,0.022 ± 0.006 %ID/g
same,%ID/g Stomach,[1]; 48 h,0.029 ± 0.012 %ID/g
same,%ID/g Thyroid gland,[1]; 48 h,0.025 ± 0.009 %ID/g
same,Femur/heart radioactivity ratio,[1]; 48 h,1.060
same,Femur/liver radioactivity ratio,[1]; 48 h,0.638
same,Femur/muscle radioactivity ratio,[1]; 48 h,0.585
"CCCCCN(C)CCC(O)(P(=O)(O)O)P(=O)(O)O [ibandronic acid, Ibandronic acid]",Renal function during follow-up,"patients; 44 patients, average follow-up of 18.5 months",no impairment of renal function
same,Pain relief rate and improvement in the quality of life vs zoledronic acid group,patients; [5],higher
same,Rate of adverse reactions vs zoledronic acid group,patients; [5],lower
same,Nephrotoxicity,patients,extremely low and equivalent to that of the placebo
O=P(O)(O)C(O)(Cn1ccnc1)P(=O)(O)O [zoledronic acid],Nephrotoxicity,patients,possible occurrence of nephrotoxicity
[^188Re]Re-bisphosphonate hydroxyethylidene diphosphonate [[^188Re]Re-HEDP],Stability (RCP),[2],91.2%
same,Bone uptake (maximum),[3]; 4 h,1.0 ± 0.1 %ID/g
same,Bone uptake,[4]; ref 37,22.36 ± 4.11 %ID/g
same,Bone uptake,[4]; ref 38,11.08 ± 4.25 %ID/g
[^188Re]Re-pamidronate [[^188Re]Re-PMA],Bone uptake (lowest),[3]; 1 h,0.40 ± 0.05 %ID/g
same,Bone uptake (highest),[3]; 4 h,0.81 ± 0.25 %ID/g
